# Reference: PubChem BioAssay AID1259408 (Genetic Toxicology Data Bank (GENE-TOX), 2018)
# Active and inactive are the calls of the source. No rule for the calls is given here.
# Tested on: GENE-TOX genotoxicity assays, various organisms and cells
# Assay: GENE-TOX mutagenicity studies
# Details: for call: Assay Type: In vivo carcinogenicity studies
# [1] = Species/Cell Type: Drosophila melanogaster, Assay Type: Sex-linked recessive lethal gene mutation, Assay Code: SRLT, Evaluation Type: Evaluation A (Pre-1980)
# [2] = Species/Cell Type: Mouse, Sex: Male, Assay Type: Sperm morphology, Assay Code: SPI-, Evaluation Type: Evaluation A (Pre-1980)
# [3] = Species/Cell Type: Saccharomyces cerevisiae, Assay Type: Mitotic recombination or gene conversion, Assay Code: YEH-, Evaluation Type: Evaluation A (Pre-1980)
# [4] = Species/Cell Type: Allium cepa, Assay Type: Chromosome aberrations, Assay Code: ALC+D, Dose Response: With dose response, Evaluation Type: Evaluation A (Pre-1980)
# [5] = Species/Cell Type: Escherichia coli polA (W3119 vs P3478), Assay Type: Rec-assay, DNA effects (bacterial DNA repair), Assay Code: RE1T, Evaluation Type: Evaluation A (Pre-1980)
# [6] = Species/Cell Type: Salmonella typhimurium (one or more of the five standard strains: TA98, TA100, TA1535, TA1537, and TA1538), Assay Type: Histidine reverse gene mutation, Ames assay, Assay Code: SALT, Evaluation Type: Evaluation A (Pre-1980)
# [7] = Species/Cell Type: Vicia faba, Assay Type: Chromosome aberrations, Assay Code: VIC+, Evaluation Type: Evaluation A (Pre-1980)
# [8] = Species/Cell Type: Nonhuman, Assay Type: Sister-chromatid exchange (SCE) in vitro, Assay Code: SC2+D, Dose Response: With dose response, Evaluation Type: Evaluation B (Post-1980)
# [9] = Species/Cell Type: Mammalian polychromatic erythrocytes, Assay Type: Micronucleus test, chromosome aberrations, Assay Code: MNTT, Evaluation Type: Evaluation A (Pre-1980)
# [10] = Species/Cell Type: Nonhuman, Assay Type: Sister-chromatid exchange (SCE) in vitro, Assay Code: SC2+, Evaluation Type: Evaluation B (Post-1980)
# [11] = Species/Cell Type: Escherichia coli WP2 UVRA, Assay Type: Tryptophan reverse gene mutation, Assay Code: WPU-, Evaluation Type: Evaluation A (Pre-1980)
# [12] = Species/Cell Type: Salmonella typhimurium (one or more of the five standard strains: TA98, TA100, TA1535, TA1537, and TA1538), Assay Type: Histidine reverse gene mutation, Ames assay, Assay Code: SAL+, Evaluation Type: Evaluation A (Pre-1980)
# [13] = Species/Cell Type: Bacillus subtilis (H17 vs M45), Assay Type: Rec-assay, spot test, DNA effects (bacterial DNA repair), Assay Code: REW-, Evaluation Type: Evaluation A (Pre-1980)
structure (smiles),measurement,setting,value
Cn1c([N+](=O)[O-])cnc1/C=N/N1CC(CN2CCOCC2)OC1=O (stereo unspecified),mutagenic call,[1],no conclusion
same,mutagenic call,"Species/Cell Type: Mouse, Sex: Female, Assay Type: Spot test, gene mutation, Assay Code: MST+, Evaluation Type: Evaluation A (Pre-1980)",active; positive
same,mutagenic call,"Species/Cell Type: Saccharomyces cerevisiae, Assay Type: Mitotic recombination or gene conversion, Assay Code: YEC-, Evaluation Type: Evaluation A (Pre-1980)",inactive; negative
Nc1ccccc1,mutagenic call,"Species/Cell Type: Allium cepa, Assay Type: Chromosome aberrations, Assay Code: ALCT, Evaluation Type: Evaluation A (Pre-1980)",no conclusion
same,mutagenic call,"Species/Cell Type: Escherichia coli polA (W3110 vs P3478), Assay Type: Rec-assay, DNA effects (bacterial DNA repair), Assay Code: RE2-, Evaluation Type: Evaluation A (Pre-1980)",inactive; negative
same,mutagenic call,"Species/Cell Type: Escherichia coli polA (W3119 vs P3478), Assay Type: Rec-assay, DNA effects (bacterial DNA repair), Assay Code: RE1+, Evaluation Type: Evaluation A (Pre-1980)",active; positive
same,mutagenic call,"Species/Cell Type: Fischer rat embryo (RLV/1706) cells, Assay Type: Cell transformation, viral enhanced, Assay Code: CTR+, Evaluation Type: Evaluation A (Pre-1980)",active; positive
same,mutagenic call,"Species/Cell Type: Human lymphocytes, Assay Type: Sister-chromatid exchange (SCE) in vitro, Assay Code: SCL+, Evaluation Type: Evaluation B (Post-1980)",active; positive
same,mutagenic call,"Species/Cell Type: Human, Assay Type: Sister-chromatid exchange (SCE) in vitro, Assay Code: SC1+, Evaluation Type: Evaluation B (Post-1980)",active; positive
same,mutagenic call,"Species/Cell Type: Mammalian polychromatic erythrocytes, Assay Type: Micronucleus test, chromosome aberrations, Assay Code: MNTT, Evaluation Type: Evaluation B (Post-1980)",no conclusion
same,mutagenic call,"Species/Cell Type: Mouse (BALB/c-3T3) cells, Assay Type: Cell transformation, Assay Code: CTB+D, Dose Response: With dose response, Evaluation Type: Evaluation A (Pre-1980)",active; positive
same,mutagenic call,[2],inactive; negative
same,call,"Species/Cell Type: Nonhuman, Assay Code: CCG+L, Evaluation Type: Evaluation A (Pre-1980)",active; positive
same,call,"Species/Cell Type: Nonhuman, Assay Code: CCGT, Evaluation Type: Evaluation A (Pre-1980)",no conclusion
same,mutagenic call,"Species/Cell Type: Nonhuman, Assay Type: Sister-chromatid exchange (SCE) in vitro, Assay Code: SC2+D, Dose Response: With dose response, Evaluation Type: Evaluation A (Pre-1980)",active; positive
same,mutagenic call,"Species/Cell Type: Nonhuman, Assay Type: Sister-chromatid exchange (SCE) in vivo, Assay Code: SC3+D, Dose Response: With dose response, Evaluation Type: Evaluation B (Post-1980)",active; positive
same,mutagenic call,[3],inactive; negative
same,mutagenic call,"Species/Cell Type: Salmonella typhimurium (one or more of the five standard strains: TA98, TA100, TA1535, TA1537, and TA1538), Assay Type: Histidine reverse gene mutation, Ames assay, Assay Code: SAL-, Evaluation Type: Evaluation A (Pre-1980)",inactive; negative
same,mutagenic call,"Species/Cell Type: Syrian hamster embryo (SHE) cells, Assay Type: Cell transformation, clonal assay, Assay Code: CTC-, Evaluation Type: Evaluation A (Pre-1980)",inactive; negative
NC(N)=O,mutagenic call,[4],active; positive
same,mutagenic call,[5],no conclusion
same,mutagenic call,"Species/Cell Type: Glycine max (soybean), Assay Type: Gene mutation, Assay Code: GLM-, Evaluation Type: Evaluation A (Pre-1980)",inactive; negative
same,mutagenic call,"Species/Cell Type: Human lymphocytes or leukocytes, Assay Type: Chromosome aberrations in vitro, Assay Code: CY7+, Evaluation Type: Evaluation A (Pre-1980)",active; positive
same,mutagenic call,[2],inactive; negative
same,mutagenic call,"Species/Cell Type: Plant, Assay Type: Micronucleus test, chromosome aberrations, Assay Code: MNP+, Evaluation Type: Evaluation A (Pre-1980)",active; positive
CON(C)C(=O)Nc1ccc(Cl)c(Cl)c1,mutagenic call,"Species/Cell Type: Hordeum vulgare (barley), Assay Type: Chromosome aberrations, Assay Code: HOC+, Evaluation Type: Evaluation A (Pre-1980)",active; positive
same,mutagenic call,[6],no conclusion
same,mutagenic call,[7],active; positive
COCC(C)OS(C)(=O)=O (stereo unspecified),mutagenic call,"Species/Cell Type: Hordeum vulgare (barley), Assay Type: Chromosome aberrations, Assay Code: HOC+D, Dose Response: With dose response, Evaluation Type: Evaluation A (Pre-1980)",active; positive
OC[C@@H](O)[C@@H](O[C@H]1O[C@H](CO)[C@@H](O)[C@H](O)[C@H]1O)[C@H](O)[C@@H](O)CO,mutagenic call,"Species/Cell Type: Mammalian polychromatic erythrocytes, Assay Type: Micronucleus test, chromosome aberrations, Assay Code: MNT-, Evaluation Type: Evaluation B (Post-1980)",inactive; negative
O=CONC(=O)c1ccc2ccccc2c1,mutagenic call,[8],active; positive
O=C1CCCO1,mutagenic call,[9],no conclusion
same,mutagenic call,[2],inactive; negative
same,mutagenic call,[10],active; positive
Cc1[nH]cnc1CSCCN(N=O)C(=NC#N)N(C)N=O,mutagenic call,[8],active; positive
O=C(Nc1nc(-c2ccc([N+](=O)[O-])o2)cs1)C(F)(F)F,mutagenic call,"Species/Cell Type: Escherichia coli WP2, Assay Type: Tryptophan reverse gene mutation, Assay Code: WP2+, Evaluation Type: Evaluation A (Pre-1980)",active; positive
same,mutagenic call,[11],inactive; negative
same,mutagenic call,[12],active; positive
CN(C)CC/C=C1\c2ccccc2CSc2ccccc21,mutagenic call,"Species/Cell Type: Rodents, Sex: Male, Assay Type: Dominant lethal test, Assay Code: DLT-, Evaluation Type: Evaluation A (Pre-1980)",inactive; negative
Cc1cc(O)c2c(c1)C(=O)c1cc(O)cc(O)c1C2=O,mutagenic call,[13],inactive; negative
same,mutagenic call,[5],no conclusion
CC(C)=CC1C(C(=O)OCc2cccc(Oc3ccccc3)c2)C1(C)C (stereo unspecified),mutagenic call,"Species/Cell Type: Human diploid fibroblasts, Assay Type: Unscheduled DNA synthesis (UDS) in vitro, DNA effects, Assay Code: UDH-, Evaluation Type: Evaluation A (Pre-1980)",inactive; negative
same,mutagenic call,[3],inactive; negative
CN(C)CCNc1ccc(NCCN(C)C)c2c1C(=O)c1c(O)ccc(O)c1C2=O,mutagenic call,[10],active; positive
NNc1cc2c(nn1)CCN(C(=O)c1ccccc1)C2,mutagenic call,"Species/Cell Type: Nonhuman, Assay Type: Sister-chromatid exchange (SCE) in vivo, Assay Code: SC3+, Evaluation Type: Evaluation B (Post-1980)",active; positive
COP(=S)(Oc1cc(Cl)c(Br)cc1Cl)c1ccccc1 (stereo unspecified),mutagenic call,[10],active; positive
O=[N+]([O-])c1cc([N+](=O)[O-])c2ccc(S(=O)(=O)O)cc2c1O,mutagenic call,"Species/Cell Type: Bacillus subtilis (H17 vs M45), Assay Type: Rec-assay, spot test, DNA effects (bacterial DNA repair), Assay Code: REWT, Evaluation Type: Evaluation A (Pre-1980)",no conclusion
same,mutagenic call,"Species/Cell Type: Bacillus subtilis (H17 vs M45T), Assay Type: Rec-assay, spot test, DNA effects (bacterial DNA repair), Assay Code: REXT, Evaluation Type: Evaluation A (Pre-1980)",no conclusion
same,mutagenic call,[12],active; positive
same,mutagenic call,[6],no conclusion
CC/C(=C(/CC)c1ccc(OP(=O)(O)O)cc1)c1ccc(OP(=O)(O)O)cc1,mutagenic call,[9],no conclusion
same,mutagenic call,"Species/Cell Type: Neurospora crassa, Assay Type: Aneuploidy, chromosome aberrations, Assay Code: NEN-, Evaluation Type: Evaluation A (Pre-1980)",inactive; negative
same,mutagenic call,"Species/Cell Type: Nonhuman, Assay Type: Sister-chromatid exchange (SCE) in vivo, Assay Code: SC3-, Evaluation Type: Evaluation B (Post-1980)",inactive; negative
same,mutagenic call,"Species/Cell Type: Rodents, Sex: Male, Assay Type: Dominant lethal test, Assay Code: DLT+, Evaluation Type: Evaluation A (Pre-1980)",active; positive
CC(C)(C)NCC(O)COc1cccc2c1CCC(=O)N2 (stereo unspecified),mutagenic call,[13],inactive; negative
same,mutagenic call,"Species/Cell Type: Escherichia coli WP2, Assay Type: Tryptophan reverse gene mutation, Assay Code: WP2-, Evaluation Type: Evaluation A (Pre-1980)",inactive; negative
same,mutagenic call,[11],inactive; negative
same,mutagenic call,"Species/Cell Type: Salmonella typhimurium, Assay Type: Forward and reverse gene mutation, host-mediated assay, Assay Code: HMA-, Evaluation Type: Evaluation A (Pre-1980)",inactive; negative
Cn1c(=O)c2c(n(C)c1=O)n(C)c(=O)n2C,mutagenic call,[4],active; positive
COC(C)[C@](O)(C(=O)O)C(C)C (stereo partly specified),mutagenic call,[1],no conclusion
CC(=O)N1CC1,mutagenic call,[7],active; positive
